In patent publication US12329739B2, “Isoflavonoid compounds and methods for the treatment of cancer” (Aardvark Therapeutics, Inc., priority 2010, dated 2025):

Key:
[1] = system: A2780 ovarian cancer cells; test: Combination with carboplatin, proliferation of A2780 cells; type: cell-based
Procedure: In vitro toxicity in normal and cancer cells. Cells were seeded in 96-well plates at an appropriate cell density as determined from growth kinetics analysis. Depending on the plating efficiency and lag phase of individual cell lines, cells were allowed to plate down prior to drug exposure. Intra-experimental single agent controls were included to ensure IC50 values obtained for each cell line matched previous IC50 determinations. Four analogue concentrations were employed in each analysis. Analogue concentrations used in each assay were chosen based on IC50 values, which formed the top concentration of analogue used. Subsequent concentrations were chosen based on simple ½ or 1/10 dilutions of the top analogue concentration employed (i.e. 2, 1, 0.5, 0.25 μM). Nine 1/10 serial dilutions of chemotherapeutic were employed with the top chemotherapeutic concentration being 50 μM.
For combined analysis, analogue concentrations were held constant through 1/10 serial dilutions of chemotherapeutic in growth medium (top chemotherapeutic concentration employed was 50 μM). Combined cultures were cultured for 5 days.
The sequence of administration effect of each agent on chemotherapeutic IC50 values was assessed by exposing plated cells to a single agent in sequence for 24 hr. To assess the isoflavonoid derivative→chemotherapeutic sequence, plated cells were first exposed to the appropriate analogue concentrations and incubated at 37° C. for 24 hr. Cells were washed with growth medium and then exposed to the appropriate chemotherapeutic concentrations and incubated for 24 hr. Cells were then washed and incubated for a further 3 days. To assess the chemotherapeutic→isoflavonoid derivative sequence, the procedure was reversed.
(§1) Cell proliferation was assessed after the addition of 20 μl of 3-4,5 dimethylthiazol-2,5-diphenyl tetrazolium bromide (MTT, 2.5 mg/ml in PBS, Sigma) for 3-4 hrs at 37° C. according to manufacturer's instructions. IC50 values were calculated from semi-log plots of % of control proliferation on the y-axis against log dose on the x-axis.
3-D model analysis of the cytotoxic interaction between drug A and drug B enables the representation of predicted inhibitory effect of two drugs in combination in 3 dimensions to reveal actual regions of synergy or antagonism. The 3D synergy plots are based on a theory of “Theoretical Additivity” (TA or […]) as outlined by Kanzawa et al. Theoretical Additivity was calculated from the cytotoxicities of drug A and drug B as monotherapies using the following formula which assumes the drugs are mutually exclusive inhibitors: […]
The TA is calculated for each combination of drug concentrations and subtracted from the observed experimental effect for each combination to give a measurement of synergistic or enhanced action.
Combination index (CI) analysis, which employs the median-effect principle correlating drug dose to cytotoxicity, was also employed to assess synergy. The median-effect equation is utilized to calculate the dose of a drug that inhibits “x” percent of cells (Chou and Talalay, 1984). D=Dm[fa/(1−fa)]^1/m
In vitro Assessment of Combination of Optically Active Compound 31 and Carboplatin. Combination studies employed both 24 hr concurrent exposure, and 24 hr sequential exposure (racemic compound 32→Carboplatin) regimens. In both studies, four analogue concentrations (0.25, 0.5, 1 and 5 μM) were held constant against titrated carboplatin. When 1 and 5 μM of compound 32 was assessed in combination with the lowest concentration of carboplatin employed in this study (0.4 μM), no IC50 for carboplatin was achieved due the high levels of cell kill observed (30-40% of control).

MDA-MB-468 = test: MTT proliferation assay, MDA-MB-468; type: cell-based, human
Procedure: The human gastric cancer cell line AGS (CRL-1739) was cultured in Hams F-12K (Kaighans modification) medium containing 2 mM L-glutamine, 2.5 g/L sodium bicarbonate and 2 mM sodium pyruvate. The human breast adenocarcinoma line MDA-MB-468 (HTB-132) was cultured in DMEM:F12 (1:1) medium containing 2.5 mM L-glutamine, 2.4 g/L sodium bicarbonate, supplemented with an additional 2 mM L-glutamine.
as §1, with “Proliferation Assays. IC50 values were determined for each cell line. Cells were seeded in 96-well plates at an appropriate cell density as determined from growth kinetics analysis and cultured for 5 days in the absence and presence of the test compounds. Cell” for “Cell”, “(MTT, 5” for “(MTT, 2.5”, “for 5” for “for 3-4”
(§2) Anti-proliferative Activity of Isoflavonoid Derivatives. IC50 values were determined for each cell line after 120 h of exposure.

COLO205 = test: MTT proliferation assay, COLO205; type: cell-based, human; details: Homo sapiens, COLO 205; CRC, COLO205, 120 h of exposure
Procedure: The human non-small cell lung adenocarcinoma lines NCI-H1299 (CRL-5803), NCI-H460 (HTB-177), NCI-H358 (CRL-5807), NCI-H838 (CRL-5844), the human colorectal adenocarcinoma lines COLO 205 (CCL-222), HCT-15 (CCL-225) and the human gastric cancer cell line NCI-N87 (CRL-5822) were cultured in RPMI 1640 medium containing 2 g/L sodium bicarbonate (Hyclone/Invitrogen) supplemented with 2 mM L-glutamine (Gibco) 1 mM sodium pyruvate (Sigma), 10 mM HEPES (Sigma) and 4500 mg/L glucose (Sigma). The human non-small cell lung adenocarcinoma line NCI-H2126 (CCL-256) was cultured in DMEM:F12(1:1) (Hyclone/Invitrogen) containing 2.5 mM L-glutamine 2.4 g/L sodium bicarbonate supplemented with 5% fetal bovine serum (FBS), an additional 2 mM L-glutamine, 15 mM HEPES, 0.005 mg/ml insulin (Sigma), 0.01 mg/ml transferrin (Sigma), 30 nM sodium selenite (Sigma), 10 nM hydrocortisone (Sigma) and 10 nM beta-estradiol (Sigma). The human colorectal adenocarcinoma line HT-29 (HTB-38) and the human gastric cancer cell lines OE-19 (#96071721) and MKN1 (JCRB0252) were cultured in RPMI 1640 media supplemented with 2 mM L-glutamine.
as §1, with “Proliferation Assays. IC50 values were determined for each cell line. Cells were seeded in 96-well plates at an appropriate cell density as determined from growth kinetics analysis and cultured for 5 days in the absence and presence of the test compounds. Cell” for “Cell”, “(MTT, 5” for “(MTT, 2.5”, “for 5” for “for 3-4”
as §2

[2] = system: A2780 ovarian cancer cells; test: Combination with carboplatin, proliferation of A2780 cells; type: cell-based; details: 0.5, 1 and 5 μM of compound plus 0.4 μM carboplatin

IC50 (MDA-MB-468; Homo sapiens, MDA-MB-468, 120 h, Breast, MDA-MB-468, 120 h of exposure): ≤ 150 nM
IC50 (MDA-MB-468; Table 2, Breast, MDA-MB-468, 120 hrs of exposure): ≤ 150 nM
IC50 (COLO205): 1600 to 10000 nM
SMILES: Oc1ccc([C@H]2c3ccc(O)cc3OC[C@H]2c2ccc(O)cc2)cc1 [Compound 31, d-cis-3-(4-hydroxyphenyl)-4-(4-hydroxyphenyl)chroman-7-ol]
enhancement of the anti-cancer effect of carboplatin ([1]; 0.25 μM of compound, A2780, depending on exposure regimen (24 hr concurrent or sequential)): 7-11 fold
potency of the inhibition of proliferation compared with compound 34 ([1]; 0.5 μM of compound in combination with carboplatin, A2780): superior
compound concentration giving maximal activity enhancement with carboplatin ([1]; 3D method of Kanzawa, 12.5 μM carboplatin, A2780): 0.25 µM
activity enhancement in combination with carboplatin ([1]; A2780 cell line, 31 compared with compound 32): superior in its ability to augment carboplatin toxicity
retardation of A2780 cell proliferation compared with compound 34 ([1]; sequential exposure (24 h), 0.25 μM of compound followed by carboplatin): superior retardation of A2780 cell proliferation
cell kill level observed (no IC50 for carboplatin achieved) [2]: 25-40 % of control
